Measurements reported in publication PMC10368966, “Safety and efficacy of AK0529 in respiratory syncytial virus‐infected infant patients: A phase 2 proof‐of‐concept trial” (Influenza and Other Respiratory Viruses, 2023).
“Also recorded” adds a separate entry of the source. Marks after values point to notes of the source that are not given here.

Legend:
RSV [1] = test: Phase 2 study: RSV viral load by quantitative reverse-transcription PCR on nasopharyngeal swab or aspirate; type: in vivo, human (infants); settings: for greater reduction in median viral load than placebo: Part 2, 2 mg/kg bid, not statistically significant
Text: This was a double‐blind, placebo‐controlled, randomized, multicenter study with the primary objective to evaluate the safety and tolerability of single and multiple oral doses of AK0529. Secondary objectives were to evaluate the effect of AK0529 on Wang Respiratory Score, to determine the effects of treatment on viral load, and to characterize the pharmacokinetics (PK) of single and multiple AK0529 doses.
The study consisted of two parts. In both parts, subjects were randomized in a 2:1 ratio to receive active treatment or placebo. Subjects were stratified by age (6 to 24 months in Cohorts 1 and 3, and 1 to <6 months in Cohorts 2 and 4).
Part 1 was a single‐dose study with a 7‐day follow‐up. The doses administered to patients in Cohort 1 included 4, 2, and 1 mg/kg. The Safety Review Committee (SRC) reviewed PK and safety data after each of the sets of three patients, before further enrollment of subjects, and recommended 0.5 and 1 mg/kg as the doses for patients in Cohort 2.
In Part 2, subjects received AK0529 or placebo over 5 days and were followed until day 14 post‐initial dose. The doses in Cohort 3 included 1 and 0.5 mg/kg bid. In Cohort 4, the doses included 2, 1 and 0.5 mg/kg bid.

[2] = Phase 2 study: safety and tolerability (adverse events); type: in vivo, human (infants)
Protocol: (§1) Safety and tolerability was evaluated by clinical assessment of safety data, including laboratory data, electrocardiographic data, vital signs, and adverse events (AEs).
Clinical safety and tolerability were assessed on the safety population, comprising all subjects who received ≥1 dose of study drug. Clinical variables were evaluated in the full analysis population, which included all subjects who received a dose of study drug and for whom ≥1 post‐treatment assessment was available. Pharmacokinetic analysis was performed on those subjects in the safety population for whom both pre‐ and post‐dose samples were available.

[3] = Phase 2 study: AST and ALT shift evaluation; type: in vivo, human (infants)
Protocol: as §1
In study Part 1, no formal sample size calculation was performed. For Part 2, it was calculated that a sample size of 16 patients in each active treatment group would provide >90% power to detect a 50% reduction (mean ratio of 0.5) in RSV viral load AUC with AK0529 as compared with placebo, using a one‐sided significance level of 0.05, two‐sample equal variance t‐test, and assuming a 0.3 variation coefficient of the placebo for viral load. These assumptions were based on viral challenge models of early treatment in adults.[3] For the transaminase shift analysis, the Chi‐square test and Fisher's exact test were used, as appropriate, to test for differences between active treatment and placebo.

RSV [4] = tested on: RSV; set-up: method as in PMID 31194544; settings: orally administered ref 9; cited from earlier work
[5] = set-up: method as in Supporting Information; settings: multiple doses up to 300 mg bid ref Supporting Information; cited from earlier work
[6] = set-up: method as in Study AK0529-1001; settings: single doses of 100 mg and above ref Study AK0529-1001; cited from earlier work
[7] = tested on: recombinant RSV T400I variant; test: Resistance test with recombinant RSV T400I variant
[8] = TEAE, preferred term, AK0529 N=49
[9] = TEAE, system organ class, AK0529 N=49
[10] = AK0529 n = 38, worst shift category
[11] = AK0529 n = 39, worst shift category

## Cc1ccc2nc(N3CCS(=O)(=O)c4ccccc4C3)nc(NCC3(N)COC3)c2c1 [AK0529, ziresovir]
RSV [1]; Part 1, 24 h after a single dose
  reductions in viral load relative to placebo: < 1 log10 PFUe/mL
RSV [1]; 72 h
  greater reduction in median viral load than placebo: 1.25 log10 PFUe/mL
RSV [1]; 96 h post-dose
  greater reduction in median viral load than placebo: 1.73 log10 PFUe/mL
[2]; AK0529 all doses N = 49
  Subjects with any AEs: 25 (51.0%) n (%)
  Subjects with any TEAEs: 24 (49.0%) n (%)
  Subjects with any TEAEs induced withdrawal: 0 n (%)
  Subjects with any TEAEs leading to death: 0 n (%)
  Subjects with any drug related TEAEs: 3 (6.1%) ^a n (%)
  Subjects with any grade ≥3 TEAEs: 2 (4.1%) ^c n (%)
[2]; AK0529 all doses N = 49, two cases of unrelated pneumonia
  Subjects with any serious TEAEs: 2 (4.1%) ^b n (%)
[2]; AK0529 group 24/49
  patients reporting grade ≥1 TEAEs: 49.0%
[2]; AK0529 group, three subjects
  subjects with Grade 1 TEAE considered drug-related by the investigator: 6%
[2]; AK0529 group, two of 49, none related to drug treatment
  patients experiencing a serious TEAE: 4.1%
[2]; AK0529 groups
  withdrawals or deaths because of TEAEs: No withdrawals or deaths; also recorded: none led to death or withdrawal from the study
[2]; AK0529 groups 2/49
  patients with grade ≥3 treatment-emergent adverse events: 4.1%
[2]; [8]
  Acute tonsillitis: 1 (2.0%) n (%)
  Anemia: 1 (2.0%) n (%)
  Aspartate aminotransferase increased: 3 (6.1%) n (%)
  Candida infection: 1 (2.0%) n (%)
  Conjunctivitis: 1 (2.0%) n (%)
  Constipation: 0 n (%)
  Dermatitis: 1 (2.0%) n (%)
  Dermatitis diaper: 4 (8.2%) n (%)
  Diarrhea: 2 (4.1%) n (%)
  Epistaxis: 2 (4.1%) n (%)
  Erythema of eyelid: 1 (2.0%) n (%)
  Eye pruritus: 0 n (%)
  Flatulence: 1 (2.0%) n (%)
  Gastrointestinal inflammation: 1 (2.0%) n (%)
  Hematochezia: 0 n (%)
  Hepatitis: 2 (4.1%) n (%)
  Hyperkalemia: 2 (4.1%) n (%)
  Hyperphosphatemia: 1 (2.0%) n (%)
  Impaired gastric emptying: 0 n (%)
  Injection site extravasation: 1 (2.0%) n (%)
  Leukocytosis: 1 (2.0%) n (%)
  Metabolic acidosis: 1 (2.0%) n (%)
  Nasopharyngitis: 1 (2.0%) n (%)
  Oral candidiasis: 1 (2.0%) n (%)
  Otitis media acute: 2 (4.1%) n (%)
  Pneumonia: 3 (6.1%) n (%)
  Pyrexia: 1 (2.0%) n (%)
  Rash: 1 (2.0%) n (%)
  Rotavirus test positive: 0 n (%)
  Thrombocytosis: 1 (2.0%) n (%)
  Transaminases increased: 2 (4.1%) n (%)
  Upper respiratory tract infection: 1 (2.0%) n (%)
  Urine ketone body present: 1 (2.0%) n (%)
  Vomiting: 1 (2.0%) n (%)
[2]; [9]
  Blood and lymphatic system disorders: 3 (6.1%) n (%)
  Eye disorders: 1 (2.0%) n (%)
  Gastrointestinal disorders: 5 (10.2%) n (%)
  General disorders and administration site conditions: 1 (2.0%) n (%)
  Hepatobiliary disorders: 2 (4.1%) n (%)
  Infections and infestations: 5 (10.2%) n (%)
  Injury, poisoning and procedural complications: 1 (2.0%) n (%)
  Investigations: 6 (12.2%) n (%)
  Metabolism and nutrition disorders: 4 (8.2%) n (%)
  Respiratory, thoracic and mediastinal disorders: 6 (12.2%) n (%)
  Skin and subcutaneous tissue disorders: 6 (12.2%) n (%)
[2]; hospitalized RSV-infected infant patients
  overall tolerability: well tolerated
[2]; human, in vivo
  Bacterial infection: 0 n (%)
[3]; AK0529 n = 38
  ALT shift: Abnormal CS to abnormal NCS: 0 n (%)
  ALT shift: Abnormal CS to normal: 0 n (%)
  ALT shift: Abnormal NCS to normal: 1 (2.6%) n (%)
  ALT shift: No change: 34 (89.5%) n (%)
[3]; [10]
  ALT shift: Abnormal NCS to abnormal CS: 1 (2.6%) n (%)
  ALT shift: Normal to abnormal CS: 1 (2.6%) n (%)
  ALT shift: Normal to abnormal NCS: 1 (2.6%) n (%)
[3]; AK0529 n = 39
  AST shift: Abnormal CS to abnormal NCS: 1 (2.6%) n (%)
  AST shift: Abnormal CS to normal: 1 (2.6%) n (%)
  AST shift: Abnormal NCS to normal: 2 (5.1%) n (%)
  AST shift: No change: 29 (74.4%) n (%)
[3]; [11]
  AST shift: Abnormal NCS to abnormal CS: 0 n (%)
  AST shift: Normal to abnormal CS: 2 (5.1%) n (%)
  AST shift: Normal to abnormal NCS: 4 (10.3%) n (%)
[3]; vs placebo, Fisher's exact p = 0.516 (ALT), p = 0.644 (AST)
  association between exposure to active drug and deterioration / shifts in transaminase levels (ALT, AST): No statistically significant differences; also recorded: no association was found
RSV [4]
  antiviral efficacy: demonstrated antiviral efficacy
[5]
  tolerability: good tolerability
[6]
  mean plasma concentration levels at 12 hours post-dose: > 50 ng/mL
[7]
  susceptibility of recombinant RSV T400I variant: resistance
